Results from US12696901B2, “Pesticidally active heterocyclic derivatives with sulfur containing substituents” (SYNGENTA CROP PROTECTION AG, priority 2020, dated 2026).

Assays:
Type in all cases: in vivo
[1] = tested on: Diabrotica balteata (Corn Root Worm); assay: Activity against Diabrotica balteata (corn root worm), sprayed maize sprouts on agar; conditions: 96 h, application rate 200 ppm, L2 larvae, 4 days after infestation, read-out: effect in at least one of the two categories (mortality or growth inhibition)
Experimental: Example B2: Activity Against Diabrotica balteata (Corn Root Worm)
Maize sprouts placed onto an agar layer in 24-well microtiter plates were treated with aqueous test solutions prepared from 10,000 ppm DMSO stock solutions by spraying. After drying, the plates were infested with L2 larvae (6 to 10 per well). The samples were assessed for mortality and growth inhibition in comparison to untreated samples 4 days after infestation.

[2] = tested on: Plutella xylostella (Diamond Back Moth); assay: Activity against Plutella xylostella (diamond back moth), treated artificial diet; conditions: 192 h, application rate 200 ppm, eggs, 8 days after infestation, read-out: effect in at least one of the two categories (mortality or growth inhibition)
Experimental: Example B5: Activity Against Plutella xylostella (Diamond Back Moth)
24-well microtiter plates with artificial diet were treated with aqueous test solutions prepared from 10,000 ppm DMSO stock solutions by pipetting. After drying, Plutella eggs were pipetted through a plastic stencil onto a gel blotting paper and the plate was closed with it. The samples were assessed for mortality and growth inhibition in comparison to untreated samples 8 days after infestation.

[3] = tested on: Myzus persicae (Green Peach Aphid); assay: Activity against Myzus persicae (green peach aphid), feeding/contact activity; conditions: 144 h, application rate 200 ppm, mixed ages, 6 days after infestation
Experimental: Example B6: Activity Against Myzus persicae (Green Peach Aphid) Feeding/Contact Activity
Sunflower leaf discs were placed onto agar in a 24-well microtiter plate and sprayed with aqueous test solutions prepared from 10,000 ppm DMSO stock solutions. After drying, the leaf discs were infested with an aphid population of mixed ages. The samples were assessed for mortality 6 days after infestation.

[4] = tested on: Spodoptera littoralis (Egyptian Cotton Leaf Worm); assay: Activity against Spodoptera littoralis (Egyptian cotton leaf worm), sprayed cotton leaf discs; conditions: foliar, 72 h, application rate 200 ppm, L1 larvae, 3 days after infestation
Experimental: Example B7: Activity Against Spodoptera littoralis (Egyptian Cotton Leaf Worm)
Cotton leaf discs were placed onto agar in 24-well microtiter plates and sprayed with aqueous test solutions prepared from 10,000 ppm DMSO stock solutions. After drying the leaf discs were infested with five L1 larvae. The samples were assessed for mortality, anti-feeding effect, and growth inhibition in comparison to untreated samples 3 days after infestation. Control of Spodoptera littoralis by a test sample is given when at least one of the categories mortality, anti-feedant effect, and growth inhibition is higher than the untreated sample.

[5] = tested on: Carpocapsa (Cydia) Pomonella (Codling Moth); assay: Activity against Carpocapsa (Cydia) pomonella (codling moth), sprayed diet cubes; conditions: 336 h, application rate 12.5 ppm, L1 larvae, 14 days after infestation, read-out: effect in at least one of the two categories (mortality or growth inhibition)
Experimental: Example B11: Activity Against Carpocapsa (Cydia) Pomonella (Codling Moth)
Diet cubes coated with paraffin were sprayed with diluted test solutions in an application chamber. After drying off the treated cubes (10 replicates) were infested with 1 L1 larvae. Samples were incubated at 26-27° C. and checked 14 days after infestation for mortality and growth inhibition. The following compounds gave an effect of at least 80% in at least one of the two categories (mortality or growth inhibition) at an application rate of 12.5 ppm: P1, P2, P3, P4, P5, P6, P10, P11, P12, P14, P15, P16, P17, P19, P20, P21, P22, P24, P27, P29, P30, P33, P34, P35.

[6] = tested on: Diabrotica balteata (Corn Root Worm); assay: Activity against Diabrotica balteata (corn root worm), corn seedlings on filter paper in cups; conditions: 120 h, application rate 3 ppm, L2 larva, 5 days after treatment, read-out: effect in at least one of the two categories (mortality or growth inhibition)
Experimental: Example B12: Activity Against Diabrotica Balteata (Corn Root Worm)
Three corn seedlings were placed on wetted filter paper in plastic cups, and 3 ml of diluted test solutions were pipetted onto them. The cups were infested with 10 L2 larva and checked for mortality and growth regulation 5 days after treatment.

[7] = tested on: Chilo suppressalis (Striped Rice Stemborer); assay: Activity against Chilo suppressalis (striped rice stemborer), treated artificial diet; conditions: 144 h, application rate 200 ppm, L2 larvae, 6 days after infestation
Experimental: Example B10: Activity Against Chilo suppressalis (Striped Rice Stemborer)
24-well microtiter plates with artificial diet were treated with aqueous test solutions prepared from 10,000 ppm DMSO stock solutions by pipetting. After drying, the plates were infested with L2 larvae (6-8 per well). The samples were assessed for mortality, anti-feeding effect, and growth inhibition in comparison to untreated samples 6 days after infestation. Control of Chilo suppressalis by a test sample is given when at least one of the categories mortality, anti-feedant effect, and growth inhibition is higher than the untreated sample.

CCS(=O)(=O)c1c(N2Cc3ncc(C(F)(F)F)cc3C2=O)nc2cc(C(F)(F)F)ccn12 [Compound P2, 6-[3-ethylsulfonyl-7-(trifluoromethyl)imidazo[1,2-a]pyridin-2-yl]-3-(trifluoromethyl)-7H-pyrrolo[3,4-b]pyridin-5-one]
≥ 80%: percent effect (mortality or growth inhibition) at 200 ppm [1] | percent effect (mortality or growth inhibition) at 200 ppm [2] | mortality at 200 ppm [3] | percent control (mortality, anti-feedant effect or growth inhibition) at 200 ppm [4] | percent effect (mortality or growth inhibition) at 12.5 ppm [5] | percent effect (mortality or growth inhibition) at 3 ppm [6]

CCS(=O)(=O)c1c(N2Cc3ncc(C(F)(F)F)cc3C2=O)nc2ccc(OC(C)C)cn12 [Compound P9, 6-(3-ethylsulfonyl-6-isopropoxy-imidazo [1,2-a]pyridin-2-yl)-3-(trifluoromethyl)-7H-pyrrolo[3,4-b] pyridin-5-one]
≥ 80%: percent control (mortality, anti-feedant effect or growth inhibition) at 200 ppm [4]

CCS(=O)(=O)c1c(N2Cc3ncc(C(F)(F)F)cc3C2=O)nc2ccc(OCC(F)(F)F)cn12 [Compound P11, 6-[3-ethylsulfonyl-6-(2,2,2-trifluoroethoxy)imidazo[1,2-a]pyridin-2-yl]-3-(trifluoromethyl)-7H-pyrrolo[3,4-b]pyridin-5-one]
≥ 80%: percent effect (mortality or growth inhibition) at 200 ppm [1] | percent effect (mortality or growth inhibition) at 200 ppm [2] | mortality at 200 ppm [3] | percent control (mortality, anti-feedant effect or growth inhibition) at 200 ppm [4] | percent control (mortality, anti-feedant effect or growth inhibition) at 200 ppm [7] | percent effect (mortality or growth inhibition) at 12.5 ppm [5] | percent effect (mortality or growth inhibition) at 3 ppm [6]

CCS(=O)(=O)c1c(N2Cc3ncc(C(F)(F)F)cc3C2=O)nc2ccc(C(C)(F)F)cn12 [Compound P18, 6-[6-(1,1-difluoroethyl)-3-ethylsulfonyl-imidazo [1,2-a]pyridin-2-yl]-3-(trifluoromethyl)-7H-pyrrolo[3,4-b]pyridin-5-one]
≥ 80%: percent effect (mortality or growth inhibition) at 3 ppm [6]

CCS(=O)(=O)c1c(N2Cc3ccc(OC(F)(F)F)cc3C2=O)nc2cc(OCC(F)(F)F)ccn12 [Compound P28, 2-[3-ethylsulfonyl-7-(2,2,2-trifluoroethoxy)imidazo[1,2-a]pyridin-2-yl]-6-(trifluoromethoxy) isoindolin-1-one]
≥ 80%: percent effect (mortality or growth inhibition) at 3 ppm [6]

CCS(=O)(=O)c1c(N2Cc3ccc(S(=O)(=O)C(F)(F)F)cc3C2=O)nc2ccc(Br)cn12 [Compound P30, 2-(6-bromo-3-ethylsulfonyl-imidazo[1,2-a]pyridin-2-yl)-6-(trifluoromethyl-sulfonyl) isoindolin-1-one]
≥ 80%: percent effect (mortality or growth inhibition) at 200 ppm [1] | percent effect (mortality or growth inhibition) at 200 ppm [2] | percent control (mortality, anti-feedant effect or growth inhibition) at 200 ppm [4] | percent control (mortality, anti-feedant effect or growth inhibition) at 200 ppm [7] | percent effect (mortality or growth inhibition) at 12.5 ppm [5] | percent effect (mortality or growth inhibition) at 3 ppm [6]

CCS(=O)(=O)c1c(N2Cc3ncc(C(F)(F)F)cc3C2=O)nc2ccc(OCC3(C#N)CC3)cn12 [Compound P31, 1-[[3-ethylsulfonyl-2-[5-oxo-3-(trifluoromethyl)-7H-pyrrolo[3,4-b]pyridin-6-yl]imidazo [1,2-a]pyridin-6-yl]oxymethyl] cyclopropane-carbonitrile]
≥ 80%: percent effect (mortality or growth inhibition) at 200 ppm [1] | percent effect (mortality or growth inhibition) at 200 ppm [2] | percent control (mortality, anti-feedant effect or growth inhibition) at 200 ppm [4] | percent control (mortality, anti-feedant effect or growth inhibition) at 200 ppm [7]

CCS(=O)(=O)c1c(N2Cc3ccc(S(=O)(=O)C(F)(F)F)cc3C2=O)nc2ccc(C(F)(F)F)cn12 [Compound P32, 2-[3-ethylsulfonyl-6-(trifluoromethyl)imidazo[1,2-a]pyridin-2-yl]-6-(trifluoromethyl-sulfonyl) isoindolin-1-one]
≥ 80%: percent effect (mortality or growth inhibition) at 200 ppm [1] | percent effect (mortality or growth inhibition) at 200 ppm [2] | percent control (mortality, anti-feedant effect or growth inhibition) at 200 ppm [4] | percent control (mortality, anti-feedant effect or growth inhibition) at 200 ppm [7] | percent effect (mortality or growth inhibition) at 3 ppm [6]
